Results on three molecules are retold here after US20110124617A1, “Combination Therapy for BreastCancer Comprising an Antiestrogenic Agent” (priority 2008, published 2011).

The subject of assay [1] is hot flashes. Nature of the assay: alleviation of hot flashes in a postmenopausal breast cancer patient treated with tamoxifen citrate. The class given is in vivo, human. To be noted: postmenopausal patient on tamoxifen citrate (20 mg tamoxifen free base). The method, then:
A postmenopausal patient is being treated in the adjuvant setting for breast cancer with the SERM tamoxifen citrate (dosage of 20 mg tamoxifen free base). They are experiencing hot flashes as a result of their treatment.

Assay [2] deals with rat uterus. To be noted: cited from earlier work; for estrogenic stimulation on the rat uterus: compound alone.

Molecules are shown by their SMILES.

Turning to `CCNCCc1ccc(CN(CC)c2cc(OC)ccc2[C@@H]2CCc3cc(O)ccc3C2)cc1` [compound of formula I], the “alleviation of hot flashes” value in assay [1] (20 mg once daily) is “partial alleviation of their symptoms”; in assay [1] (dosage adjusted to 50 mg), “almost complete alleviation of their hot flushes”. Further, the “estrogenic stimulation on the rat uterus” value in assay [2] is “no estrogenic stimulation”. Besides, the “antagonism of the estrogenic effect of estradiol on the uterus” value in assay [2] (with estradiol) was “could antagonize the estrogenic effect of estradiol on the uterus and bring it back to control levels”.

Consider `O=C(c1ccc(OCCN2CCCCC2)cc1)c1c(-c2ccc(O)cc2)sc2cc(O)ccc12` [raloxifene, reference compound], for which the “estrogenic stimulation on the rat uterus” value in assay [2] was “did stimulate the uterus”.

Regarding `CC/C(=C(\c1ccccc1)c1ccc(OCCN(C)C)cc1)c1ccccc1` [tamoxifen, reference compound], the “estrogenic stimulation on the rat uterus” value in assay [2] was “did stimulate the uterus”.
